Like-named read-outs stand apart in the source and are kept apart here.
Assays:
[1] = Human liver microsome stability assay (Biological Example 8b); conditions: liver microsomes, pH 7.4
Protocol: The reaction was started with addition of excess NADPH (5 mg/mL, 15 μL in 0.1 M potassium phosphate buffer, 1.0 mM EDTA, pH 7.4), the total volume is 45 μL (compound final concentration was 1 μM). […] 50 μL of the supernatant was transferred from each well into a 96-well sample plate containing 50 μL of ultra-pure water (Millipore) for LC-MS/MS analysis.

[2] = molecular target: T1, Cyp21 enzyme (Human HEK 293-Cyp21 stable transfected cells) (Homo sapiens, UniProt P08686); experiment: CYP21-HEK293 enzymatic assay (IC50) (Biological Example 11); format: cell-based
T1 construct: expressed in transfected cells
T1 sequence (P08686 1-495): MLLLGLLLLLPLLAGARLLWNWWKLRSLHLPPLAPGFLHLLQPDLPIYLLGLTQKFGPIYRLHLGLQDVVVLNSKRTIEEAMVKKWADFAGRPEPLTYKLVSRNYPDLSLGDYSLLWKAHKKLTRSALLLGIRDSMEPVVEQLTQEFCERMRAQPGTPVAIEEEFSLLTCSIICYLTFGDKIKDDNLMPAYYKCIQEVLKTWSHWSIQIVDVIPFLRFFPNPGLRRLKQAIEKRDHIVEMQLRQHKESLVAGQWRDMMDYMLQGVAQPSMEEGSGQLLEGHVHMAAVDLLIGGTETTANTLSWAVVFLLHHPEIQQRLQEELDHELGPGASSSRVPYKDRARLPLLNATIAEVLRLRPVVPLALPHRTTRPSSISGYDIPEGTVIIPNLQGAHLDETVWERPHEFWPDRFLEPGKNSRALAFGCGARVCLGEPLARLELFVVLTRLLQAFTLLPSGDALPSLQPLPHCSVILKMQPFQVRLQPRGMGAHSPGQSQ
Protocol: This assay was used to determine compound activity against Cyp21 enzyme. […] The next day, 20 μL medium was carefully removed and 10 μL of 10× pre-made compounds in DMEM+10% FBS+10% methanol was transferred to the wells to final concentrations of 1000, 100, 10, 1, or 0.1 nM. Mock treatment was 1% methanol in growth media and the cells were left at 37° C., 5% CO2 for 5 hr. After the incubation, 10 μL of substrate progesterone (Sigma) was added to the wells to make a final concentration of 10 μM. The cells were incubated the cells at 37° C. for 20 hr. At the end of incubation, 90 μL of conditioned media was removed to measure DOC level by ELISA.
The next day, the plates were washed twice with 250 μl of wash solution (0.015M PBS pH 7.4 containing 0.05% Tween 20). After being washed, the wells were blocked with 250 μL blocking buffer (3% BSA in 0.025M PBS, pH 7.4) at 37° C. for 2 h. The plates were washed again 3 times as before, and then 90 μL of sample /standards (prepared in complete growth media) was added into the appropriate wells followed by 10 μL of antibody solution (1:450 rabbit anti-DOC in 0.6% BSA/PBS). The plates were incubated at room temperature for 2 h on a shaker. The contents of the wells were removed and the plate was washed 4 times. After the final wash, 100 μL of secondary antibody (1:12000 HRP-goat-anti-rabbit IgG conjugate 0.6% BSA/PBS) was added into each well. […] The plate was washed again 4 times and 100 μL of TMB substrate solution was added to each well. The plate was incubated at room temperature for 10 min. 100 μL of stop solution was added to each well and the optical density was read at 450 nm.
The mean absorbance value for each sample was used to determine the corresponding concentration from the standard curve. Data was analyzed with “log(antagonist) vs response variable slope” under “non-linear regression analysis” using Prism5 software.

[3] = molecular target: T2, CYP17 (human testicular microsome) (Homo sapiens, UniProt P05093); experiment: CYP17 enzymatic assay (% inhibition at 1 nM) (Biological Example 12); format: biochemical; conditions: compound at 1 nM
T2 construct: using microsomal fraction from human testis (Celsis Cat #S00110) as the enzyme source; tissue Celsis S00110; host or cells: human testis microsomal fraction
T2 sequence (P05093 1-508): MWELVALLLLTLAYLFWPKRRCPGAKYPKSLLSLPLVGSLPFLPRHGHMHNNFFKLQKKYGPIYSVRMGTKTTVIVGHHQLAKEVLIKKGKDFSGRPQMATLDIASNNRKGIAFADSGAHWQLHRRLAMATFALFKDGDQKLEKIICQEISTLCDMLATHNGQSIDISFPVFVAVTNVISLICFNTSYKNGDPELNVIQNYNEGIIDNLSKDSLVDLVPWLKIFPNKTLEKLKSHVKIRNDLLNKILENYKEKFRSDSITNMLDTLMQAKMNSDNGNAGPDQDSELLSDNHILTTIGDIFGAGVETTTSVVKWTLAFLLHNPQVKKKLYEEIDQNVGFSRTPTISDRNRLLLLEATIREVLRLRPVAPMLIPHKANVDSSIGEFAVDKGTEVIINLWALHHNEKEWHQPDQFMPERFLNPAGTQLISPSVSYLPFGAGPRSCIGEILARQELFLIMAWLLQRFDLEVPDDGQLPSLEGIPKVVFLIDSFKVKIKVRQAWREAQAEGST

[4] = molecular target: T2, CYP17 (human testicular microsome); experiment: CYP17 enzymatic assay (IC50) (Biological Example 4); format: biochemical; conditions: human testicular microsome; read-out: Biological Example No. 4: CYP17 enzymatic assay IC50
[5] = HEK 293-Cyp21 cells, read-out: CYP21-HEK293 enzymatic assay IC50 (Biological Example No. 11)
[6] = read-out: CYP17 enzymatic assay % inhibition at 1 nM (Biological Example No. 12)
[7] = HEK 293-Cyp21 cells, read-out: Biological Example No. 11: CYP21-HEK293 enzymatic assay IC50
[8] = read-out: Biological Example No. 12: CYP17 enzymatic assay % inhibition at 1 nM
[9] = HEK 293-Cyp21 stable transfected cells, read-out: CYP21-HEK293 enzymatic assay IC50 (Biological Example No. 11)

Compound | half-life at 1 μM [1] | IC50 [2, 7] | inhibition at 0.001 µM [3, 8] | also measured
C[C@]12CCC3C(CCC4=CC(=O)CC[C@@]43C)C1=CC=C2c1cnccn1 (stereo partly drawn) [Compound 291, (10R,13S)-10,13-dimethyl-17-(pyrazin-2-yl)-6,7,8,9,10,11,12,13-octahydro-1H-cyclopenta[a]phenanthren-3(2H)-one] | 1 to 50 min |  |  | IC50 [2, 5]: > 100 nM; inhibition at 0.001 µM [3, 6]: > 50%
C[C@]12CCC3C(C=CC4=C(O)C(=O)CC[C@@]43C)C1=CC=C2c1cccnc1 (stereo partly drawn) [Compound 297, (10R,13S)-4-hydroxy-10,13-dimethyl-17-(pyridin-3-yl)-8,9,10,11,12,13-hexahydro-1H-cyclopenta[a]phenanthren-3(2H)-one] | 1 to 50 min |  |  | IC50 [2, 5]: > 100 nM; inhibition at 0.001 µM [3, 6]: > 50%
C[C@]12CC[C@H]3[C@@H](CC(CO)C4=CC(=O)CC[C@@]43C)C1=CC=C2c1cccnc1 (stereo partly drawn) [Compound 340, (10R,13S)-6-(hydroxymethyl)-10,13-dimethyl-17-(pyridin-3-yl)-6,7,8,9,10,11,12,13-octahydro-1H-cyclopenta[a]phenanthren-3(2H)-one] |  | > 100 nM | > 50% | IC50 [4]: < 11 nM
CC1C[C@@H]2[C@H](CC[C@]3(C)C(c4cncc(F)c4)=CC[C@@H]23)[C@@]2(C)C=CC(=O)C=C12 (stereo partly drawn) [Compound 345, (10R,13S)-17-(5-fluoropyridin-3-yl)-6,10,13-trimethyl-6,7,8,9,10,11,12,13,14,15-decahydro-3H-cyclopenta[a]phenanthren-3-one] |  | 10 to 100 nM | > 50% | IC50 [4]: < 11 nM
C=C1C[C@H]2C3=CC=C(c4cccnc4)[C@@]3(C)CC[C@@H]2[C@@]2(C)C=CC(=O)C=C12 [Compound 350, (10R,13S)-10,13-dimethyl-6-methylene-17-(pyridin-3-yl)-6,7,8,9,10,11,12,13-octahydro-3H-cyclopenta[a]phenanthren-3-one] | 1 to 50 min |  |  | IC50 [2, 9]: < 10 nM
C[C@]12CCC(=NO)C=C1C1(CC1)C[C@@H]1[C@@H]2CC[C@]2(C)C(c3cccnc3)=CC[C@@H]12 [Compound 362, (6cR,8aS)-10,13-dimethyl-17-(pyridin-3-yl)-1,7,8,9,10,11,12,13,14,15-decahydrospiro[cyclopenta[a]phenanthrene-6,1′-cyclopropan]-3(2H)-one oxime] |  | > 100 nM | 10 to 50% | 
CC1(C)C2=CCC3C(CC[C@]4(C)C(c5cccnc5)=CCC34)[C@@]2(C)CC/C1=N\O (stereo partly drawn) [Compound 363, (10R,13S,E)-4,4,10,13-tetramethyl-17-(pyridin-3-yl)-4,7,8,9,10,11,12,13,14,15-decahydro-1H-cyclopenta[a]phenanthren-3(2H)-one oxime] |  | > 1000 nM | < 10% | 
C[C@]12C=CC(=NO)C=C1C1(CC1)C[C@@H]1[C@@H]2CC[C@]2(C)C(c3cccnc3)=CC[C@@H]12 [Compound 365, (6cR,8aS)-10,13-dimethyl-17-(pyridin-3-yl)-7,8,9,11,12,13,14,15-octahydrospiro[cyclopenta[a]phenanthrene-6,1′-cyclopropan]-3(10H)-one oxime] |  | > 100 nM | 10 to 50% | 
C[C@]12CCC(=NO)C=C1C(F)CC1C2CC[C@]2(C)C(c3cccnc3)=CCC12 (stereo partly drawn) [Compound 366, (10R,13S)-6-fluoro-10,13-dimethyl-17-(pyridin-3-yl)-6,7,8,9,10,11,12,13,14,15-decahydro-1H-cyclopenta[a]phenanthren-3(2H)-one oxime] |  | > 1000 nM | 10 to 50% | 
CC1CC2C(CC[C@]3(C)C(c4cccnc4)=CCC23)[C@@]2(C)C=CC(=NO)C=C12 (stereo partly drawn) [Compound 367, (10R,13S)-6,10,13-trimethyl-17-(pyridin-3-yl)-6,7,8,9,10,11,12,13,14,15-decahydro-3H-cyclopenta[a]phenanthren-3-one oxime] |  | > 1000 nM | 10 to 50% | 
CC1CC2C3=CC=C(c4ccc(F)nc4)[C@@]3(C)CCC2[C@@]2(C)CCNC(=O)C=C12 (stereo partly drawn) [Compound 385, (5aR,7aS)-8-(6-fluoropyridin-3-yl)-5a,7a,12-trimethyl-3,4,5,5a,5b,6,7,7a,11,12-decahydrocyclopenta[5,6]naphtho[1,2-d]azepin-2(10bH)-one] |  | > 1000 nM | 10 to 50% | 
C[C@]12CCC3C(CCC45CC4NC(=O)CC[C@]35C)C1CC=C2c1cccnc1 (stereo partly drawn) [Compound 387, (5aR,7aS)-5a,7a-dimethyl-8-(pyridin-3-yl)-1a,2,4,5,5a,5b,6,7,7a,10,10a,10b,11,12-tetradecahydrocyclopenta[5,6]naphtho[2,1-c]cyclopropa[b]azepin-3(1H)-one] |  | > 1000 nM | < 10% | 
C[C@]12CCC3C(CCC4=CC(=O)NCC[C@@]43C)C1=CC=C2c1cncc(C(F)F)c1 (stereo partly drawn) [Compound 390, (5aR,7aS)-8-(5-(difluoromethyl)pyridin-3-yl)-5a,7a-dimethyl-3,4,5,5a,5b,6,7,7a,11,12-decahydrocyclopenta[5,6]naphtho[1,2-d]azepin-2(10bH)-one] |  | > 1000 nM | > 50% | IC50 [4]: < 11 nM
CC1CC2C3=CC=C(c4cncc(C(F)F)c4)[C@@]3(C)CCC2[C@@]2(C)CCNC(=O)C=C12 (stereo partly drawn) [Compound 391, (5aR,7aS)-8-(5-(difluoromethyl)pyridin-3-yl)-5a,7a,12-trimethyl-3,4,5,5a,5b,6,7,7a,11,12-decahydrocyclopenta[5,6]naphtho[1,2-d]azepin-2(10bH)-one] |  | > 1000 nM | < 10% | 
CC1C[C@@H]2[C@H](CC[C@]3(C)C(c4cccnc4)CC[C@@H]23)[C@@]2(C)CCNC(=O)C=C12 (stereo partly drawn) [Compound 395, (5aR,7aS)-5a,7a,12-trimethyl-8-(pyridin-3-yl)-3,4,5,5a,5b,6,7,7a,8,9,10,10a,11,12-tetradecahydrocyclopenta[5,6]naphtho[1,2-d]azepin-2(10bH)-one] | 1 to 50 min |  |  | IC50 [2, 9]: < 10 nM
C[C@]12CCC(=O)C=C1C(=O)CC1C2CC[C@]2(C)C(c3cncc(F)c3)=CCC12 (stereo partly drawn) [Compound 417, (10R,13S)-17-(5-fluoropyridin-3-yl)-10,13-dimethyl-7,8,9,11,12,13,14,15-octahydro-1H-cyclopenta[a]phenanthrene-3,6(2H,10H)-dione] |  | > 1000 nM | > 50% | IC50 [4]: < 11 nM
C[C@]12CCC(=O)CC1C(=O)CC1C2CC[C@]2(C)C(c3cncc(F)c3)=CCC12 (stereo partly drawn) [Compound 418, (10R,13S)-17-(5-fluoropyridin-3-yl)-10,13-dimethyl-4,5,7,8,9,11,12,13,14,15-decahydro-1H-cyclopenta[a]phenanthrene-3,6(2H,10H)-dione] |  | > 1000 nM | > 50% | IC50 [4]: < 11 nM
CC1C[C@@H]2[C@H](CC[C@]3(C)C(c4cccnc4)CC[C@@H]23)[C@@]2(C)CCC(=O)C=C12 (stereo partly drawn) [Compound 420, (10R,13S)-6,10,13-trimethyl-17-(pyridin-3-yl)-6,7,8,9,10,11,12,13,14,15,16,17-dodecahydro-1H-cyclopenta[a]phenanthren-3(2H)-one] | 1 to 50 min |  |  | IC50 [2, 9]: < 10 nM
CC1C[C@@H]2[C@H](CC[C@]3(C)C(c4cccnc4)CC[C@@H]23)[C@@]2(C)C=CC(=O)C=C12 (stereo partly drawn) [Compound 421, (10R,13S)-6,10,13-trimethyl-17-(pyridin-3-yl)-6,7,8,9,10,11,12,13,14,15,16,17-dodecahydro-3H-cyclopenta[a]phenanthren-3-one] | 1 to 50 min |  |  | IC50 [2, 9]: < 10 nM
C[C@]12CCC(=O)C=C1CCC1C2CC[C@]2(C)C(c3cncc(C(F)F)c3)=CCC12 (stereo partly drawn) [Compound 479, (10R,13S)-17-(5-(difluoromethyl)pyridin-3-yl)-10,13-dimethyl-6,7,8,9,10,11,12,13,14,15-decahydro-1H-cyclopenta[a]phenanthren-3(2H)-one] |  | > 1000 nM | 10 to 50% | 

— patent publication US20130252930A1 (BIOMARIN PHARMACEUTICAL INC., priority 2010, published 2013)
